Results: US20030040510A1, “Selective estrogen receptor modulators in combination with estrogens” (Endorecherche, Inc., priority 2000, published 2003)
Marks after values point to notes of the source that are not given here.

Tests used:
[1] = test system: ovariectomized female rats; assay: Prevention of bone loss, body fat, serum cholesterol and ALP, 3-month treatment of OVX rats (Example 5A, experiment 1); format: in vivo, Sprague-Dawley rats; settings: 3 months; for Serum ALP: OVX rats
Procedure: (§1) Ten to twelve week-old female Sprague-Dawley rats (Crl:CD(SD)Br) (Charles River Laboratory, St-Constant, Canada) weighing approximately 220-270 g at start of treatment were used. The animals were acclimatized to the environmental conditions (temperature: 22±3° C.; humidity: 50±20%; 12-h light-12-h dark cycles, lights on at 07:15 h) for at least 1 week before starting the experiments. The animals were housed individually and were allowed free access to tap water and a pelleted certified rodent feed (Lab Diet 5002, Ralston Purina, St-Louis, Mo.). Experiments were conducted in an animal facility approved by the Canadian Council on Animal Care (CCAC) and the Association for Assessment and Accreditation of Laboratory Animal Care (AAALAC) in accordance with the CCAC Guide for Care and Use of Experimental Animals.
On day 1 of the study, the animals of the appropriate groups were bilaterally ovariectomized (OVX) under isoflurane anesthesia. […] Treatments were initiated on day 2 of the study and were performed once daily during 3 months.
After 3 months (experiment 1) or 26 weeks (experiment 2) of treatment, individual rats under Isoflurane anesthesia had their whole body skeleton and lumbar spine scanned using dual energy x-ray absorptiometry (DEXA; QDR 4500A, Hologic, Waltham, Mass.) and a Regional High Resolution Scan software. The bone mineral density (BMD) of the lumbar spine (vertebrae L2 to L4) and the total body composition (fat percentage) were determined.
After 3 months (experiment 1) or 26 weeks (experiment 2) of treatment, blood samples were collected at the jugular vein from overnight fasted animals (under Isoflurane anesthesia). Samples were processed for serum preparation and frozen at −80° C. until assay. Serum cholesterol levels and alkaline phospatase activity (ALP) were determined using the Boehringer Mannheim Diagnostic Hitachi 911 Analyzer (Boehringer Mannheim Diagnostic Laboratory Systems).

[2] = test system: OVX rats having established osteopenia; assay: Treatment of OVX rats having established osteopenia, 26 weeks (Example 5B): BMD, total body fat; format: in vivo, Sprague-Dawley rats; settings: treatment started 10 weeks after OVX, 26 weeks daily
Procedure: as §1, with “Height” for “Ten”, “nine month-old” for “twelve week-old”, “Canada)” for “Canada) weighing approximately 220-270 g at start of treatment”, “used in this experiment.” for “used.”, “prior to” for “before starting”, “ovariectomy. Animals were bilaterally ovariectomized (OVX) under isoflurane anesthesia. Twenty animals were kept intact as control.” for “experiments.”
Treatments were initiated 10 weeks after the ovariectomy and were performed once daily during 26 weeks. Animals not receiving a test article were treated with the appropriate vehicle alone during the same period.
Prior to the OVX, prior to the first day treatment (10 weeks after OVX) and after 26 weeks of treatment, individual rats under Isoflurane anesthesia had their whole body skeleton, lumbar spine and right femur scanned using dual energy x-ray absorptiometry (DEXA; QDR 4500A, Hologic, Waltham, Mass.) and a Regional High Resolution Scan software. The bone mineral density (BMD) of the lumbar spine (vertebrae L2 to L4), femur and the total body composition (fat percentage) were determined.

[3] = test system: ovariectomized rats supplemented with 17β-estradiol; assay: EM-652.HCl with oral 17β-estradiol for 2 weeks in OVX rats: uterus, endometrial epithelium, vagina, serum cholesterol (Example 10); format: in vivo, Sprague-Dawley rats
Procedure: Ten to twelve week-old female Sprague-Dawley rats (Crl:CD(SD)Br) (Charles River Laboratory, St-Constant, Canada) weighing 215-265 g at time of ovariectomy were used. The animals were housed individually in an environmentally-controlled room (temperature: 22±3° C.; humidity: 50±20%; 12-h light-12-h dark cycles, lights on at 07:15 h). The animals were allowed free access to tap water and a certified rodent feed (Lab Diet 5002 (pellet), Ralston Purina, St-Louis, Mo.). The experiment was conducted in an animal facility approved by the Canadian Council on Animal Care (CCAC) and the Association for Assessment and Accreditation of Laboratory Animal Care (AAALAC) in accordance with the CCAC Guide for Care and Use of Experimental Animals.
On the first day of the study, the animals of the appropriate groups were bilaterally ovariectomized (OVX) under isoflurane anesthesia. The tested compounds were then given once daily by oral gavage as a suspension in 0.4% methylcellulose (0.5 ml/rat) from day 1 to day 14 of the study. Animals of groups 1 and 2 received the vehicle alone during the same time period. On day 15 of the study, 4 animals per group were perfused with 10% buffered formalin and tissues were processed for histological examination. The other animals were killed by exsanguination at the abdominal aorta under isoflurane anesthesia. The uterus and vagina were removed, stripped of remaining fat and weighed. A specimen from each uterus was fixed in 10% buffered formalin for determination of the height of endometrial epithelial cells using a computerized-assisted program (Software Image-Pro Plus).
Total cholesterol was measured on serum samples collected from overnight fasted animals using a Boehringer Mannheim Diagnostic Hitachi 911 Analyzer (Boehringer Mannheim Diagnostic Laboratory Systems).

ZR-75-1 breast tumors = assay: Growth and response category of human ZR-75-1 breast tumors in OVX nude mice, 7 antiestrogens, 161 days (Example 8); format: in vivo; settings: 161 days; for Change of ZR-75-1 tumor size compared to the OVX control group: 200 μg daily alone
Procedure: The mice (5 per cage) were housed in vinyl cages equipped with air filter lids, which were kept in laminar airflow hoods and maintained under pathogen-limiting conditions. The photoperiod was 12 hours of light and 12 hours of darkness (lights on at 07:15). Cages, bedding and food (Agway Pro-Lab R-M-H Diet #4018) were autoclaved before use. Water was autoclaved and provided ad libitum. Bilateral ovariectomy was performed under isoflurane-induced anesthesia. […] Randomization and treatments were started one week later. […] The 17 groups included two control groups (OVX and OVX+Estrone), seven groups supplemented with an estrone implant and treated with an antiestrogen and eight other groups that received an antiestrogen alone. The estrone implants were then removed from the animals in the ovariectomized control group (OVX) and in groups that were to receive the antiestrogen alone. […] Tamoxifen was purchased from […], Israel) while toremifene citrate was purchased from Orion (Espoo, Finland). […] Animals in both control groups received 0.2 ml of the vehicle alone. The antiestrogen suspensions at the appropriate concentration were prepared each month, stored at 4° C. and used under constant agitation. Powder stock were hermetically stored at 4° C. […] Tumor response was assessed at the end of the study or at death of each animal, if it occurred during the course of the experiment. In this case, only data of mice that survived for at least half of the study (84 days) were used in the tumor response analysis.

endometrial epithelium = assay: Thickness of uterine (endometrial) epithelial cells in the mice of Example 8; format: in vivo, nude mice; settings: for Endometrial epithelium thickness: OVX + antiestrogen 200 μg daily, no estrone, 161 days
Description: The 17 groups included two control groups (OVX and OVX+Estrone), seven groups supplemented with an estrone implant and treated with an antiestrogen and eight other groups that received an antiestrogen alone. The estrone implants were then removed from the animals in the ovariectomized control group (OVX) and in groups that were to receive the antiestrogen alone. […] Tamoxifen was purchased from […], Israel) while toremifene citrate was purchased from Orion (Espoo, Finland). […] Animals in both control groups received 0.2 ml of the vehicle alone. The antiestrogen suspensions at the appropriate concentration were prepared each month, stored at 4° C. and used under constant agitation. Powder stock were hermetically stored at 4° C. […] After 161 days of treatment, the remaining animals were anesthetized with isoflurane and killed by exsanguination. […] The uteri were prepared to evaluate endometrial thickness by image analysis performed with Image Pro-Plus (Media Cybernetics, Maryland, USA). […] Hematoxylin- and eosin-stained sections of mice uteri were analysed. […] Mean epithelial cell height was measured in all animals of each group.

[4] = test system: breast and endometrial tissues; assay: Antiestrogens tested for SERM function and estrogenic activity in breast and endometrium; settings: for Estrogenic activity in breast and endometrial tissues: physiological or pharmacological concentrations
Description: As used herein, a selective estrogen receptor modulator (SERM) is a compound that either directly or through its active metabolite functions as an estrogen receptor antagonist (“antiestrogen”) in breast tissue, yet provides estrogenic or estrogen-like effect on bone tissue and on serum cholesterol levels (i.e. by reducing serum cholesterol). Non-steroidal compounds that function as estrogen receptor antagonists in vitro or in human or rat breast tissue (especially if the compound acts as an antiestrogen on human breast cancer cells) is likely to function as a SERM. Conversely, steroidal antiestrogens tend not to function as SERMs because they tend not to display any beneficial effect on serum cholesterol. […] These SERMs may be called “pure SERMs”. […] This second series of SERMs may be called “mixed SERMs”. The unwanted estrogenic activities of these “mixed SERMs”, may be inhibited by addition of pure “SERMs” as shown in FIGS. 6 and 7 in in vitro tests and in FIG. 9 in an in vivo test of breast cancer.

ovariectomized rats = assay: 5-diol alone or with Flutamide and/or EM-800 for 12 months in ovariectomized rats (bone mass, serum markers)
[5] = test system: uterus and vagina of ovariectomized mice; assay: Uterine and vaginal weight in ovariectomized mice treated or not with estrone (9 days oral); format: in vivo, BALB/c mice
Procedure: (St-Constant, Quebec, Canada) and housed 5 per cage in a temperature (23±1° C.)—and light (12 h light/day, lights on at 7:15)—controlled environment. The mice were fed rodent chow and tap water ad libitum. […] Ten mice were kept intact as controls. […] Compounds were dissolved in ethanol (4% final concentration) and administered in 0.4% methylcellulose. Mice in the intact and OVX control groups received the vehicle alone (4% ETOH-0.4% methylcellulose) during the 9-day period. The animals were killed by exsanguination at the abdominal aorta on the 11th morning following ovariectomy.

[6] = 10 μg alone, absence of estrone, OVX mice

`C[C@]12CC[C@@H]3c4ccc(O)cc4CC[C@H]3[C@@H]1CC[C@@H]2O` [E2, 17β-estradiol, reference compound] was tested, and the “Serum ALP” value [1] was 59 ± 4 IU/L, the “Femoral BMD” value [2] was “completely prevented the further decrease” and the “Lumbar spine BMD” value [2] was “completely prevented the further decrease”. The Total body fat [2] was “prevented the 17% increase”, the Endometrial epithelial height ([3]; OVX + E2 2 mg/kg) was 41.9±1.2 μm and the “Endometrial epithelial height higher than in intact control animals” value ([3]; OVX + E2 2 mg/kg) was 34.7%. For the same compound, the “Inhibition of serum cholesterol levels” value ([3]; OVX + E2 2 mg/kg) was 53%, the Vaginal weight ([3]; OVX + E2 2 mg/kg) was 149.9 ± 9.0 mg and the Uterine weight ([3]; OVX + E2 2 mg/kg oral daily, 2 weeks) was 490 ± 26 mg.

For `CC/C(=C(/c1ccc(OCCN(C)C)cc1)c1cccc(O)c1)c1ccccc1` [Droloxifene, (E)-3-[1-[4-[2-(Dimethylamino)ethoxy]phenyl]-2-phenyl-1-butenyl]phenol], the Progressing tumors (ZR-75-1 breast tumors; 50 μg daily + estrone) was 100%, the “Change of ZR-75-1 tumor size compared to the OVX control group” value (shortened to “Change of ZR-75-1 tumor size”) (ZR-75-1 breast tumors; absence of estrone) was “did not significantly change” and the Endometrial epithelium thickness (endometrial epithelium) was 18.50 ± 0.07 μm. For the same compound, the “Function as SERM” value [4] was “found to function as SERMs” and the “Estrogenic activity in breast and endometrial tissues” value (from here on “Estrogenic activity”) [4] was “have some estrogenic activities”.

For `CC/C(=C(\c1ccccc1)c1ccc(/C=C/C(=O)O)cc1)c1ccccc1` [GW 5638], the “Serum ALP” value [1] was 72 ± 6 IU/L, the “OVX-induced increase on serum cholesterol levels” value ([1]; alone or in combination with E2) was “completely prevented” and the Progressing tumors (ZR-75-1 breast tumors; 50 μg daily + estrone) was 77%. The “Change of ZR-75-1 tumor size” value (ZR-75-1 breast tumors; absence of estrone) was “did not significantly change”, the Endometrial epithelium thickness (endometrial epithelium) was 22.22^a ± 0.05 μm and the “Function as SERM” value [4] was “found to function as SERMs”. The “Estrogenic activity” value [4] was “have some estrogenic activities”.

With `C[C@]12CC[C@H]3[C@@H](CC=C4C[C@@H](O)CC[C@@]43C)[C@@H]1CC[C@@H]2O` [5-diol, androst-5-ene-3β,17β-diol] the “Serum alkaline phosphatase activity” value (ovariectomized rats; 5-diol) was “marked stimulation”, the “Urinary ratio of calcium to creatinine” value (ovariectomized rats; 5-diol) was “no statistically significant inhibitory effect” and the “Reduction of serum cholesterol” value (ovariectomized rats; highest dose of 5-diol) was 23%.

With `CC/C(=C(\c1ccc(I)cc1)c1ccc(OCCN2CCCC2)cc1)c1ccccc1` [Idoxifene, (E)-1-[2-[4-[1-(4-Iodophenyl)-2-phenyl-1-butenyl]phenoxy]ethyl]pyrrolidine] the Progressing tumors (ZR-75-1 breast tumors; 50 μg daily + estrone) was 71%, the Progressing tumors (ZR-75-1 breast tumors; 200 μg daily, absence of estrone) was 33% and the “Inhibition of the stimulatory effect of estrone on epithelial height” value (endometrial epithelium; 50 μg daily oral + estrone) was 50%. For the same compound, the “Function as SERM” value [4] was “found to function as SERMs” and the “Estrogenic activity” value [4] was “have some estrogenic activities”.

In the case of `CC(C)C(=O)Nc1ccc([N+](=O)[O-])c(C(F)(F)F)c1` [FLU, Flutamide], the “Reversal of 5-diol-stimulated serum alkaline phosphatase activity” value (ovariectomized rats; simultaneous FLU, vs 12.5 mg 5-diol alone) is reported as 57%.

For `Cl.O=C(c1ccc(OCCN2CCCCC2)cc1)c1c(-c2ccc(O)cc2)sc2cc(O)ccc12` [Raloxifene, [2-(4-hydroxyphenyl)-6-hydroxybenzo[b]thien-3-yl][4-[2-(1-piperidinyl)ethoxy]phenyl]-methanone hydrochloride], the “Stimulation of uterine weight” value [5, 6] was 85%, the “Stimulation of vaginal weight” value [5, 6] was 56% and the “Inhibition of estrone-stimulated vaginal weight” value ([5]; 10 μg daily oral, 9 days, OVX mice + E1) was 24%. For the same compound, the Progressing tumors (ZR-75-1 breast tumors; 50 μg daily + estrone) was 81%, the “Change of ZR-75-1 tumor size” value (ZR-75-1 breast tumors; absence of estrone) was “did not significantly change” and the Endometrial epithelium thickness (endometrial epithelium) was 22.33^a ± 0.05 μm. For the same compound, the “Function as SERM” value [4] was “found to function as SERMs” and the “Estrogenic activity” value [4] was “have some estrogenic activities”.
